From patent EP0973746B1, “SUBSTITUTED 3-CYANO QUINOLINES” (Wyeth Holdings Corporation, priority 1997, dated 1998)
Converted amounts (≈) assume the structure as drawn.

Legend:
[1] = system: A431; assay: Inhibition of cell growth by incorporation of [3H]-thymidine, A431; type: cell-based, human; settings: Homo sapiens
[2] = system: SW620; assay: Inhibition of cancer cell growth as measured by cell number, SW620; type: cell-based, human; settings: Homo sapiens, SW-620, 48 h, read-out: IC50 SW620, cell number, Sulforhodamine B, 48 hours exposure; Table 4;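 further: SW620 was included as a cell line with little or no EGFR or HER2/neu expression, in contrast to receptor-overexpressing lines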
From the text: (§1) The cell lines were chosen since they overexpressed epidermal growth factor receptor (EGFR) (i.e. A431) or HER2/neu (SKBR3), or had little to no expression of the these receptors (SW620, LOX, MCF7).

[3] = system: A2780DDP; assay: Inhibition of cancer cell growth as measured by cell number, A2780DDP; type: cell-based; settings: Homo sapiens, 48 h, read-out: IC50 A2780DDP
[4] = system: LOX; assay: Inhibition of cancer cell growth as measured by cell number, LOX; type: cell-based, human; settings: Homo sapiens, LOX, 48 h, read-out: IC50 LOX, cell number, Sulforhodamine B, 48 hours exposure; Table 6;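 further: LOX cells served as a line with low or absent EGFR and HER2/neu expression, in contrast to receptor-overexpressing lines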
From the text: as §1

[5] = system: T47D; assay: Inhibition of cancer cell growth as measured by cell number, T47D; type: cell-based; settings: Homo sapiens, 48 h, read-out: IC50 T47D
[6] = system: PC3; assay: Inhibition of cancer cell growth as measured by cell number, PC3; type: cell-based; settings: Homo sapiens, PC-3, 48 h, read-out: IC50 PC3
[7] = system: CX1; assay: Inhibition of cancer cell growth as measured by cell number, CX1; type: cell-based; settings: Homo sapiens, CX-1, 48 h, read-out: IC50 CX1
[8] = target: epidermal growth factor receptor kinase (Homo sapiens, UniProt P00533); assay: biochemical
epidermal growth factor receptor kinase, sequence (P00533 25-1210): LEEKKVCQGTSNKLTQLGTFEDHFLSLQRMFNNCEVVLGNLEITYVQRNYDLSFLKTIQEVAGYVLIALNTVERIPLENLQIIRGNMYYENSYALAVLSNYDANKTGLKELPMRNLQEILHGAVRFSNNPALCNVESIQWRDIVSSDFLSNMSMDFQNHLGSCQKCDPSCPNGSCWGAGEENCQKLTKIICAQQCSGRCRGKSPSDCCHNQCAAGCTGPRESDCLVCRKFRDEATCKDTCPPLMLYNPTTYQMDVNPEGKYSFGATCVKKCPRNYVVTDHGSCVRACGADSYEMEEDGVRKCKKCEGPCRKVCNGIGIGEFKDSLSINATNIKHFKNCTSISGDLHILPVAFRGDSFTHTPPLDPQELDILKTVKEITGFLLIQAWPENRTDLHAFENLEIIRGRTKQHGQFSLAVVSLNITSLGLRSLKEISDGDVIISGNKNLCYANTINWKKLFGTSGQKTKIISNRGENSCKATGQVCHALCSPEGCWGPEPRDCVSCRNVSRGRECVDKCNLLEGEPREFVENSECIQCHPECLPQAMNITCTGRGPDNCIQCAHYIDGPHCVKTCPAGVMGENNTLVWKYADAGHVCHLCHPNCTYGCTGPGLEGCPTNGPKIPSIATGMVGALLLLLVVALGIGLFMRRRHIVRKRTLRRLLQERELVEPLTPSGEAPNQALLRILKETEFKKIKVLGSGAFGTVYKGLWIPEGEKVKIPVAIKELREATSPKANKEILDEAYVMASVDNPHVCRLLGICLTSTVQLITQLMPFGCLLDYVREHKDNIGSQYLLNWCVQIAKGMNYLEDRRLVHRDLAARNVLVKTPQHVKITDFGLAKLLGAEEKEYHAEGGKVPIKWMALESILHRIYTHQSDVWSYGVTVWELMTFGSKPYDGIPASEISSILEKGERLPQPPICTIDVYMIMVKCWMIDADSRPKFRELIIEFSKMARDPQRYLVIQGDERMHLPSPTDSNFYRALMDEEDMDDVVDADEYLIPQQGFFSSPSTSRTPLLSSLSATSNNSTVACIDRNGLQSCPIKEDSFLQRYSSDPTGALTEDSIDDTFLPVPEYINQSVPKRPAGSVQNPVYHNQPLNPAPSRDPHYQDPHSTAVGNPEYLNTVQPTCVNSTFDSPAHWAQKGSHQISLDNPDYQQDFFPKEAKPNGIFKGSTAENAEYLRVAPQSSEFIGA
Method: The enzyme was obtained as a membrane extract of A431 cells (American Type Culture Collection, Rockville, MD). A431 cells were grown in T175 flasks to 80% confluency. The cells were washed twice with phosphate buffered saline (PBS) without Ca^2+. Flasks were rotated for 1.5 hours in 20 ml PBS with 1.0 mM ethylenediaminetetraacetic acid (EDTA) at room temperature and centrifuged at 600g for 10 minutes. The cells were solubilized in 1 ml per 5 x 10^6 cells of cold lysis buffer {10mM 4-(2-hydroxyethyl)-1-piperazineethane-sulfonic acid (HEPES), pH 7.6, 10 mM NaCl, 2mM EDTA, 1mM phenylmethyl-sulfonyl-fluoride (PMSF), 10 mg/ml aprotinin, 10 mg/ml leupeptin, 0.1 mM sodium orthovanadate} in a Dounce homogenizer with 10 strokes on ice. The lysate was centrifuged at 600g for 10 minutes first to clear cell debris and the supernatant further centrifuged at 100,000 g for 30 min at 4°C. The membrane pellet was suspended in 1.5 ml HNG buffer (50 mM HEPES, pH 7.6, 125 mM NaCl, 10% glycerol). The membrane extract was divided into aliquots, immediately frozen in liquid nitrogen and stored at -70°C.
Compounds to be evaluated were made into 10 mg/ml stock solutions in 100% dimethylsulfoxide (DMSO). Prior to experiment, stock solutions were diluted to 500 mM with buffer (30 mM Hepes pH 7.4) and then serially diluted to the desired concentration.
An aliquot of the A431 membrane extract (10 mg/ml) was diluted in 30 mM HEPES (pH 7.4) to give a protein concentration of 50 ug/ml. […] To this was added the ^33p-ATP (10 mCi/ml) diluted 1:10 in assay buffer along with the substrate peptide at a concentration of 0.5 mM (control reactions get no test compound) and the reaction was allowed to proceed for 30 min at 30°C. The reaction was stopped with 10% TCA and left on ice for at least 10 min after which tubes were microcentrifuged at full speed for 15 min. The a portion of the supernatants were spotted on P81 phosphocellulose discs and washed twice in 1% acetic acid then water for 5 min each followed by scintillation counting. […] The % inhibition of the test compound was determined for at least three different concentrations and the IC50 value was evaluated from the dose response curve. […] CPM(control) is in units of counts per minute and was a number expressing the amount of radiolabeled ATP (g-^33P) incorporated into the RR-SRC peptide substrate by the enzyme after 30 minutes at 30°C in the absence of test compound as measured by liquid scintillation counting. The CPM values were corrected for the background counts produced by ATP in the absence of the enzymatic reaction. The IC50 values reported in TABLE 1 are averages of the number of tests conducted.

[9] = system: B7474; assay: Inhibition of cancer cell growth as measured by cell number, B7474; type: cell-based; settings: Homo sapiens, 48 h, read-out: IC50 B7474
[10] = system: A27805; assay: Inhibition of cancer cell growth as measured by cell number, A27805; type: cell-based; settings: Homo sapiens, 48 h, read-out: IC50 A27805
[11] = system: CACO2; assay: Inhibition of cancer cell growth as measured by cell number, CACO2; type: cell-based; settings: Homo sapiens, Caco-2, 48 h, read-out: IC50 CACO2
[12] = system: LS174T; assay: Inhibition of cancer cell growth as measured by cell number, LS174T; type: cell-based; settings: Homo sapiens, 48 h, read-out: IC50 LS174T
[13] = system: HL60; assay: Inhibition of cancer cell growth as measured by cell number, HL60; type: cell-based; settings: Homo sapiens, HL-60, 48 h, read-out: IC50 HL60
[14] = system: A431; assay: Inhibition of cancer cell growth as measured by cell number, A431; type: cell-based, human; settings: Homo sapiens, A-431, 48 h, read-out: IC50 A431, cell number, Sulforhodamine B, 48 hours exposure; Table 6;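 further: human A431 line, picked because it overexpresses epidermal growth factor receptor (EGFR)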
From the text: as §1

[15] = system: HCT15; assay: Inhibition of cancer cell growth as measured by cell number, HCT15; type: cell-based; settings: Homo sapiens, HCT-15, 48 h, read-out: IC50 HCT15
[16] = system: LX1; assay: Inhibition of cancer cell growth as measured by cell number, LX1; type: cell-based; settings: Homo sapiens, LX-1, 48 h, read-out: IC50 LX1
[17] = system: MIP; assay: Inhibition of cancer cell growth as measured by cell number, MIP; type: cell-based; settings: Homo sapiens; cell number, Sulforhodamine B, 48 hours exposure; Table 4; read-out: IC50 MIP
[18] = system: A549; assay: Inhibition of cancer cell growth as measured by cell number, A549; type: cell-based; settings: Homo sapiens, A549, 48 h, read-out: IC50 A549
[19] = system: CCRF-CFM; assay: Inhibition of cancer cell growth as measured by cell number, CCRF-CFM; type: cell-based; settings: Homo sapiens, 48 h, read-out: IC50 CCRF-CFM
[20] = system: SW948; assay: Inhibition of cancer cell growth as measured by cell number, SW948; type: cell-based; settings: Homo sapiens, SW948, 48 h, read-out: IC50 SW948
[21] = system: HTB161; assay: Inhibition of cancer cell growth as measured by cell number, HTB161; type: cell-based; settings: Homo sapiens, 48 h, read-out: IC50 HTB161
[22] = system: DU145; assay: Inhibition of cancer cell growth as measured by cell number, DU145; type: cell-based; settings: Homo sapiens, DU-145, 48 h, read-out: IC50 DU145
[23] = system: CCL228; assay: Inhibition of cancer cell growth as measured by cell number, CCL228; type: cell-based; settings: Homo sapiens, 48 h, read-out: IC50 CCL228
[24] = system: NEC; assay: Inhibition of cancer cell growth as measured by cell number, NEC; type: cell-based; settings: Homo sapiens, 48 h, read-out: IC50 NEC
[25] = target: T1, Kinase insert Domain containing Receptor (KDR: the catalytic domain of the VEGF receptor) (Homo sapiens, UniProt P35968); assay: Inhibition of Kinase insert Domain containing Receptor (KDR); type: biochemical; settings: pH 7.2; radioactive format; read-out: KDR IC50 (converted);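 further: KDR phosphorylating a Glu:Tyr 4:1 copolymer with P32- or P33-labelled ATP, Mg++ and vanadate, read as acid-insoluble radiolabel, compared with compound-free reaction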
T1 construct: KDR: the catalytic domain of the VEGF receptor
T1 sequence (P35968 834-1162 limits assumed): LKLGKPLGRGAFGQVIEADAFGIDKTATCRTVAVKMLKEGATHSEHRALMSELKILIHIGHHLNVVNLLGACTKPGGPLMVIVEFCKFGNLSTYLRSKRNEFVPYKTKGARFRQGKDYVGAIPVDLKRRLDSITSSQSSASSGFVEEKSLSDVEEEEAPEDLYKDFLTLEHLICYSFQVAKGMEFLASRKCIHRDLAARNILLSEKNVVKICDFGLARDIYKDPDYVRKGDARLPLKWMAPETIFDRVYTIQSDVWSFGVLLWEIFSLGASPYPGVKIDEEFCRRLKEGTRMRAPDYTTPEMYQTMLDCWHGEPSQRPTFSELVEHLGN
Method: In this standard pharmacological test procedure, KDR protein is mixed, in the presence or absence of a inhibitor compound, with a substrate peptide to be phosphorylated (a copolymer of glutamic acid and tyrosine, E:Y :: 4:1) and other cofactors such as Mg^++ and sodium vanadate (a protein tyrosine phosphatase inhibitor) in an appropriate buffer to maintain pH (7.2). ATP and a radioactive tracer (either P^32-or P^33- labeled ATP) is then add to initiate phosphorylation. After incubation, the radioactive phosphate associated with the acid-insoluble fraction of the assay mixture is then quantified as reflection of substrate phosphorylation.

[26] = system: COLO205; assay: Inhibition of cancer cell growth as measured by cell number, COLO205; type: cell-based; settings: Homo sapiens, COLO 205, 48 h, read-out: IC50 COLO205
[27] = target: recombinant human MEK 1 (MAPKK) and recombinant human ERK2 (MAPK); assay: Mitogen Activated Protein Kinase (MAPK) assay, two component coupled MEK 1 / ERK2; type: biochemical; settings: separate entries for the same compound = evaluated more than one time;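 further: MEK 1-activated ERK2 phosphorylates MBP or Myc peptide with 33P-ATP, filter capture and scintillation counting, inhibitor preincubated with ERK2 30 min at 0 °C, inhibition relative to uninhibited control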
[28] = system: SKBR3; assay: Inhibition of cancer cell growth as measured by cell number, SKBR3; type: cell-based, human; settings: Homo sapiens, SK-BR-3, 48 h, read-out: IC50 SKBR3, cell number, Sulforhodamine B, 48 hours exposure; Table 7;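 further: SK-BR-3 cells were selected as a line overexpressing HER2/neu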
From the text: as §1

[29] = system: MCF7; assay: Inhibition of cancer cell growth as measured by cell number, MCF7; type: cell-based, human; settings: Homo sapiens, MCF7, 48 h, read-out: IC50 MCF7, cell number, Sulforhodamine B, 48 hours exposure; Table 5;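 further: MCF7 was included as a line with little or no EGFR or HER2/neu expression, in contrast to the receptor-overexpressing lines of the panel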
From the text: as §1

[30] = system: LNCAP; assay: Inhibition of cancer cell growth as measured by cell number, LNCAP; type: cell-based; settings: Homo sapiens, 48 h, read-out: IC50 LNCAP

| Structure (SMILES) | IC50 [2] | IC50 [3] | IC50 [4] | IC50 [5] | IC50 [6] | IC50 [7] | IC50 [9] | IC50 [10] | IC50 [11] | IC50 [12] | IC50 [13] | IC50 [14] | IC50 [15] | IC50 [16] | IC50 [17] | IC50 [18] | IC50 [19] | IC50 [20] | IC50 [21] | IC50 [22] | also measured |
| --- | --- | --- | --- | --- | --- | --- | --- | --- | --- | --- | --- | --- | --- | --- | --- | --- | --- | --- | --- | --- | --- |
| COc1cc2[nH]cc(C#N)c(=O)c2cc1OC [Example 33, 1,4-Dihydro-6,7-dimethoxy-4-oxo-3-quinolinecarbonitrile] |  |  |  |  |  |  |  |  |  |  |  |  |  |  |  |  |  |  |  |  | IC50 ([1]; A-431, [3H]-thymidine incorporation, A431, read-out: IC50 A431): 18 µM |
| COc1cc2ncc(C#N)c(Nc3ccc(F)cc3)c2cc1OC [Example 46, 4-((4-Fluorophenyl)amino]-6,7-dimethoxy-3-quinolinecarbonitrile] | > 100 µg/mL | 5.86 µg/mL (≈ 18.1 µM) | 5.35 µg/mL (≈ 16.5 µM) | > 100 µg/mL | > 100 µg/mL | 9.7 µg/mL (≈ 30 µM) | 32.9 µg/mL (≈ 102 µM) | 7.41 µg/mL (≈ 22.9 µM) | 6.03 µg/mL (≈ 18.6 µM) | 7.13 µg/mL (≈ 22 µM) | 6.02 µg/mL (≈ 18.6 µM) | 8.01 µg/mL (≈ 24.8 µM) | 5.6 µg/mL (≈ 17.3 µM) | 34 µg/mL (≈ 105 µM) | 5.6 µg/mL (≈ 17.3 µM) | 4.85 µg/mL (≈ 15 µM) | 61.7 µg/mL (≈ 191 µM) | > 100 µg/mL | 9.59 µg/mL (≈ 29.6 µM) | 3.63 µg/mL (≈ 11.2 µM) | IC50 [8]: 8.83 µM; IC50 ([1]; A-431, read-out: IC50 A431): 1 µM; IC50 [23]: 54 µg/mL (≈ 167 µM) |
| COc1cc2ncc(C#N)c(Oc3cccc(Br)c3)c2cc1OC [Example 49, 4-(3-Bromophenoxy)-6,7-dimethoxy-3-quinolinecarbonitrile] | > 100 µg/mL | 51.8 µg/mL (≈ 135 µM) | 55.1 µg/mL (≈ 143 µM) | 71.2 µg/mL (≈ 185 µM) | > 100 µg/mL | 98.4 µg/mL (≈ 256 µM) | 87.1 µg/mL (≈ 226 µM) | 34.8 µg/mL (≈ 90.2 µM) | 42.1 µg/mL (≈ 109 µM) | > 100 µg/mL | 48.4 µg/mL (≈ 126 µM) | 100 µg/mL (≈ 260 µM) | 97.4 µg/mL (≈ 253 µM) | > 100 µg/mL | > 100 µg/mL | > 100 µg/mL | > 100 µg/mL | > 100 µg/mL | 70.6 µg/mL (≈ 183 µM) | 79.8 µg/mL (≈ 207 µM) | IC50 [24]: 85.3 µg/mL (≈ 221 µM); IC50 [25]: > 77.9 µM; IC50 [26]: 88 µg/mL (≈ 228 µM); IC50 [27]: > 100 µM; IC50 [28]: 74.6 µg/mL (≈ 194 µM); IC50 [29]: 57.5 µg/mL (≈ 149 µM); IC50 [30]: 52.4 µg/mL (≈ 136 µM); IC50 [23]: 99 µg/mL (≈ 257 µM) |
